Counter-ions that a name gives are not always drawn.

T1 sequence (P31652 whole entry): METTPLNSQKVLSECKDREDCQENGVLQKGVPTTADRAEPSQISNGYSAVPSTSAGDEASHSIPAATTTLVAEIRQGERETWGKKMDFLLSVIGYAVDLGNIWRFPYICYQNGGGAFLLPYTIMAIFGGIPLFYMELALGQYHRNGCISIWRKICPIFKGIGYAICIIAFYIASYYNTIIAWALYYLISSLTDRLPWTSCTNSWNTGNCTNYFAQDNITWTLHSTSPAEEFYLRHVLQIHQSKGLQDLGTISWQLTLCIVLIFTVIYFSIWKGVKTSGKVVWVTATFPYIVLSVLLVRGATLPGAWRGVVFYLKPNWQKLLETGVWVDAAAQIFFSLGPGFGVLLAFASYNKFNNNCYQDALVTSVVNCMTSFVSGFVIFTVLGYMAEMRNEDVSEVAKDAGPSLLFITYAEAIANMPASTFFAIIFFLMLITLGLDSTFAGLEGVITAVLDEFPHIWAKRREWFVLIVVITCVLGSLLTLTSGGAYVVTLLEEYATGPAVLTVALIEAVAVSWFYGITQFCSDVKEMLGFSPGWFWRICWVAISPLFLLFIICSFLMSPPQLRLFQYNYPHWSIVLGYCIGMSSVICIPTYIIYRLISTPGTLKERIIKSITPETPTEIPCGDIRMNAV

This test addresses T1, 5HT UPTAKE (Rattus norvegicus, UniProt P31652).
T1 construct: Crude synaptosomal preparations were isolated after differential centrifugation; from tissue; host or cells: rat cerebral cortex, crude synaptosomes
The test is described as follows: Inhibition of synaptosomal uptake of 3H-serotonin (3H-5HT) in vitro, rat cerebral cortex synaptosomes. In kind it is biochemical, Sprague-Dawley rats. The following applies: concentration needed to inhibit the uptake of 3H-5HT by 50%; rat cortical synaptosomes, 37°C, 5 min, 50 nM 3H-5HT. The procedure: This general procedure is set forth in Wong et al., Drug Development Research 6:397-403 (1985).
Male Sprague-Dawley rats (110-150 g) from Harlan Industries (Cumberland, IN) were fed Purina Chow ad libitum for at least 3 days before being used in the studies. Rats were killed by decaptiation. Whole brains were removed and dissected. Cerebral cortex was homogenized in 9 volumes of a medium containing 0.32 M sucrose and 10 mM glucose. Crude synaptosomal preparations were isolated after differential centrifugation at 1,000 g for 10 min. and 17,000 g for 28 min. The final pellets were suspended in the same medium and kept in ice until use within the same day.
Synaptosomal uptake of ³H-serotonin (³H-5-hydroxytryptamine, ³H-5HT) was determined as follows: Cortical synaptosomes (equivalent to 1 mg of protein) were incubated at 37°C for 5 min in 1 ml of Krebs-bicarbonate medium containing also 10 mM glucose, […], 1 mM ascorbic acid, 0.17 mM EDTA and 50 nM ³H-5HT. The reaction mixture was immediately diluted with 2 ml of ice-chilled Krebs-bicarbonate buffer and filtered under vacuum with a cell harvester (Brandel, Gaithersburg, MD). Filters were rinsed twice with approximately 5 ml of ice-chilled 0.9% saline and were transferred to a counting vial containing 10 ml of scintillation fluid (PCS, Amersham, Arlington Heights, IL). Radioactivity was measured by a liquid scintillation spectrophotometer. Accumulation of ³H-5HT at 4°C represented the background and was subtracted from all samples.
The results of the evaluation of various compounds of the present invention are set forth below in Table I. In Table I, the first column provides the Example Number of the compound evaluated; the next 7 columns identify the structure of the compound evaluated when taken with the formula set forth in the heading; the next-succeeding column identifies the salt form of the compound evaluated; and the final column provides the amount of the test compound expressed in nanomolar concentration needed to inhibit the uptake of ³H-5HT by 50%, and is indicated in Table I as IC₅₀. Numbers in parentheses, if any, represent percent inhibition at 1000 nM.
As to `COc1ccc(C(F)F)c2c1CC(N1CCN(C)CC1)CC2` (stereo not drawn) [Example 38, 2-(N-Methylpiperazinyl)-5-difluoromethyl-8-methoxy-1,2,3,4-tetrahydronaphthalene dimaleate], half-maximal inhibition (IC50) required 23 nM.

In the case of `Oc1ccc2c(c1)CCC(N1CCNCC1)C2` (stereo not drawn) [Example 37, 2-Piperazinyl-6-hydroxy-1,2,3,4-tetrahydronaphthalene dihydrobromide], the midpoint of inhibition, the IC50, lay at 1000 nM. With `CC1c2c(Cl)cccc2CCC1N1CCN(C)CC1` (stereo not drawn) [Example 11, 1-Methyl-2-(N-methylpiperazinyl)-8-chloro-1,2,3,4-tetrahydronaphthalene dimaleate] the figure was 650 nM; with `CC1c2ccc(Br)cc2CCC1N1CCNCC1` (stereo not drawn) [Example 40, 1-Methyl-2-piperazinyl-6-bromo-1,2,3,4-tetrahydronaphthalene dihydrochloride], 34 nM. With `COc1cccc2c1CC(N1CCN(C)CC1)CC2` (stereo not drawn) [Example 1, 2-(Methylpiperazinyl)-8-methoxy-1,2,3,4-tetrahydronaphthalene dihydrochloride] the figure was 57 nM; with `CN1CCN(C2CCc3cccc(Br)c3C2)CC1` (stereo not drawn) [Example 9, 2-(N-Methylpiperazinyl)-8-bromo-1,2,3,4-tetrahydronaphthalene dimaleate], 90 nM; with `COc1ccc(Br)c2c1CC(N1CCN(C)CC1)CC2` (stereo not drawn) [Example 15, 2-(N-Methylpiperazinyl)-5-bromo-8-methoxy-1,2,3,4-tetrahydronaphthalene dihydrochloride], 12 nM.

Turning to `COc1ccc(I)c2c1CC(N1CCN(C)CC1)CC2` (stereo not drawn) [Example 22, 2-(N-methylpiperazinyl)-5-iodo-8-methoxy-1,2,3,4-tetrahydronaphthalene dihydrochloride], the 50% inhibitory concentration (IC50) came out at 23 nM. With `CC1c2ccccc2CCC1N1CCN(C)CC1` (stereo not drawn) [Example 35, 1-Methyl-2-(N-methylpiperazinyl-1,2,3,4-tetrahydronaphthalenedihydrochloride] the figure was 490 nM; with `CN1CCN(C2CCc3cccc(Cl)c3C2)CC1` (stereo not drawn) [Example 4, 2-(N-methylpiperazinyl)-8-chloro-1,2,3,4-tetrahydronaphthalene dimaleate], 35 nM. With `CSc1ccc2c(c1)CCC(N1CCN(C)CC1)C2` (stereo not drawn) [Example 39, 2-(N-Methylpiperizinyl)-6-methylthio-1,2,3,4-tetrahydronaphthalene dihydrochloride] the figure was 434 nM; with `C[C@@H]1c2ccc(Cl)cc2CC[C@@H]1N1CCNCC1` (single isomer, unassigned; (+)) [Example 33a, (+)cis-1-Methyl-2-piperazinyl-6-chloro-1,2,3,4-tetrahydronaphthalene dihydrochloride dihydrate], 84 nM. With `Cc1ccc(Br)c2c1CC(N1CCN(C)CC1)CC2` (stereo not drawn) [Example 17, 2-(N-methylpiperazinyl)-5-bromo-8-methyl-1,2,3,4-tetrahydronaphthalene dihydrochloride] the figure was 17 nM. For the compound `CN1CCN(C2CCc3cc(Br)ccc3C2)CC1` (stereo not drawn) [Example 31, 2-(N-Methylpiperazinyl)-6-bromo-1,2,3,4-tetrahydronaphthalene dihydrochloride], half-maximal inhibition (IC50) required 520 nM.

Compound `Clc1ccc2c(c1)CCC(N1CCCNCC1)C2` (stereo not drawn) [Example 36, 2-Homopiperazinyl-6-chloro-1,2,3,4-tetrahydronaphthalene dihydrochloride] gave an IC50 of 240 nM.

In turn, `COc1ccc(Br)c2c1C(C)C(N1CCNCC1)CC2` (single isomer, unassigned) [Example 19, 1-Methyl-2-piperazinyl-5-bromo-8-methoxy-1,2,3,4-tetrahydronaphthalene dihydrochloride] registered an IC50 of 70 nM.

Compound `CC1c2ccccc2CCC1N1CCNCC1` (stereo not drawn) [Example 34, 1-Methyl-2-piperazinyl-1,2,3,4-tetrahydronaphthalene dihydrochloride] yielded an IC50 of 59 nM. In the case of `CSc1cccc2c1CC(N1CCN(C)CC1)CC2` (stereo not drawn) [Example 18, 2-(N-methylpiperazinyl)-8-methylthio-1,2,3,4-tetrahydronaphthalene dimaleate] it was 40 nM; in that of `Clc1cc2c(cc1Cl)CC(N1CCNCC1)CC2` (stereo not drawn) [Example 30, 2-Piperazinyl-6,7-dichloro-1,2,3,4-tetrahydronaphthalene dihydrochloride], 115 nM.

Take `Clc1cccc2c1CC(N1CCCNCC1)CC2` (stereo not drawn) [Example 5, 2-(Homopiperazinyl)-8-chloro-1,2,3,4-tetrahydronaphthalene dimaleate]: 260 nM corresponded to half-maximal inhibition (IC50). In the case of `Cc1cccc2c1CC(N1CCN(C)CC1)CC2` (stereo not drawn) [Example 7, 2-(N-Methylpiperazinyl)-8-methyl-1,2,3,4-tetrahydronaphthalene dihydrochloride] it was 87 nM. In the case of `Brc1ccc2c(c1)CCC(N1CCNCC1)C2` (stereo not drawn) [Example 26, 2-Piperazinyl-6-bromo-1,2,3,4-tetrahydronaphthalene dihydrochloride] it was 350 nM. For `C[C@@H]1c2ccc(Cl)cc2CC[C@@H]1N1CCNCC1` (single isomer, unassigned; (-)) [Example 33b, (-)cis-1-Methyl-2-piperazinyl-6-chloro-1,2,3,4-tetrahydronaphthalene dihydrochloride dihydrate], the concentration for half-maximal inhibition (IC50) worked out at 8.2 nM. With `C[C@@H]1c2ccc(Cl)cc2CC[C@@H]1N1CCNCC1` (racemic) [Example 33, cis-1-Methyl-2-piperazinyl-6-chloro-1,2,3,4-tetrahydronaphthalene dihydrochloride] the figure was 12 nM; with `Cc1ccc(C)c2c1CCC(N1CCN(C)CC1)C2` (stereo not drawn) [Example 8, 2-(N-Methylpiperazinyl)-5,8-dimethyl-1,2,3,4-tetrahydronaphthalene dimaleate], 140 nM; with `CN1CCN(C2CCc3cccc(F)c3C2)CC1` (stereo not drawn) [Example 6, 2-(N-methylpiperazinyl)-8-fluoro-1,2,3,4-tetrahydronaphthalene dimaleate], 180 nM. The compound `COc1ccc(Cl)c2c1CC(N1CCN(C)CC1)CC2` (stereo not drawn) [Example 21, 2-(N-methylpiperazinyl)-5-chloro-8-methoxy-1,2,3,4-tetrahydronaphthalene dihydrochloride] had an IC50 of 16 nM. `COc1ccc(C=O)c2c1CC(N1CCN(C)CC1)CC2` (stereo not drawn) [Example 23, 2-(N-methylpiperazinyl)-5-formyl-8-methoxy-1,2,3,4-tetrahydronaphthalene dihydrochloride hydrate] had an IC50 of 10 nM. In the case of `COc1ccc(Br)c2c1CC(N1CCNCC1)CC2` (stereo not drawn) [Example 16, 2-Piperazinyl-5-bromo-8-methoxy-1,2,3,4-tetrahydronaphthalene dihydrochloride] it was 3.7 nM.

For the compound `Clc1cccc2c1CC(N1CCNCC1)CC2` (stereo not drawn) [Example 3, 2-Piperazinyl-8-chloro-1,2,3,4-tetrahydronaphthalene dimaleate], inhibition was half-maximal at 83 nM (IC50). In the case of `COc1ccc2c(c1)CCC(N1CCNCC1)C2` (stereo not drawn) [Example 29, 2-Piperazinyl-6-methoxy-1,2,3,4-tetrahydronaphthalene dihydrochloride] it was 750 nM; in that of `CN1CCN(C2CCc3cccc(O)c3C2)CC1` (stereo not drawn) [Example 14, 2-(N-Methylpiperazinyl)-8-hydroxy-1,2,3,4-tetrahydronaphthalene dihydrobromide], 50 nM. Regarding `Fc1ccc2c(c1)CCC(N1CCNCC1)C2` (stereo not drawn) [Example 27, 2-Piperazinyl-6-fluoro-1,2,3,4-tetrahydronaphthalene dihydrochloride], half-maximal inhibition (IC50) was put at 340 nM. With `COc1cccc2c1CC(N1CCNCC1)CC2` (stereo not drawn) [Example 2, 2-Piperazinyl-8-methoxy-1,2,3,4-tetrahydronaphthalene dihydrochloride] the figure was 90 nM; with `CN1CCN(C2CCc3cc(Cl)ccc3C2)CC1` (stereo not drawn) [Example 32, 2-(N-Methylpiperazinyl)-6-chloro-1,2,3,4-tetrahydronaphthalene dihydrochloride], 450 nM; with `COc1ccc(OC)c2c1CCC(N1CCN(C)CC1)C2` (stereo not drawn) [Example 10, 2-(N-methylpiperazinyl)-5,8-dimethoxy-1,2,3,4-tetrahydronaphthalene dihydrochloride], 100 nM. In the case of `Cc1ccc2c(c1)CCC(N1CCNCC1)C2` (stereo not drawn) [Example 28, 2-Piperazinyl-6-methyl-1,2,3,4-tetrahydronaphthalene dihydrochloride], 210 nM corresponded to half-maximal inhibition (IC50). With `CC1c2c(Cl)cccc2CCC1N1CCNCC1` (stereo not drawn) [Example 12, 1-Methyl-2-piperazinyl-8-chloro-1,2,3,4-tetrahydronaphthalene dihydrochloride] the figure was 270 nM. With `Clc1ccc2c(c1)CCC(N1CCNCC1)C2` (stereo not drawn) [Example 25, 2-Piperazinyl-6-chloro-1,2,3,4-tetrahydronaphthalene dihydrochloride] the figure was 100 nM.

For orientation: IC50 means the concentration that gives 50% inhibition. A low value points to greater potency in that assay.
